# Laboratory results reported in US20260201335A1, “A Method to Generate Cardiac Pericytes from Human Induced Pluripotent Stem Cells” (The Board of Trustees of the Leland Stanford Junior …, priority 2022, published 2026).
# B1: PDGF-BB: platelet-derived growth factor ligand predominantly secreted by ECs; PDGF pathway activator (protein, UniProt P01127 82-190, looked up)
# Platelet-derived growth …: SLGSLTIAEPAMIAECKTRTEVFEISRRLIDRTNANFLVWPPCVEVQRCSGCCNNRNVQCRPTQVQLRPVQVRKIEIVRKKPIFKKATVTLEDHLACKCETVAAARPVT
# modifications: homodimer
# How the values were obtained:
# [1] = system: iPSC-CPs; assay: Calcium imaging using Fura-2 AM after carbachol; assay type: cell-based, human
# Source text: (§1) FIG. 1. […] Key changes of hallmarks in each cluster are highlighted. […] GraphPad Prism 9 was used for statistical analysis. All data are presented as mean±sem.
# (§2) Next, we examined the relative cell contraction capacities of iPSC-CPs versus iPSC-SMCs by measuring intracellular calcium transients after carbachol treatment. […] We also tested the pro-angiogenic potentials of iPSC-CPs.
# [2] = system: iPSC-SMCs; assay: Calcium imaging using Fura-2 AM after carbachol; assay type: cell-based, human; conditions: iPSC-SMCs after carbachol treatment
# Source text: as §1, §2
# [3] = system: primary and iPSC-CPs; assay: Thalidomide rescue of sunitinib-induced CP death (cell morphology); assay type: cell-based, human; conditions: sunitinib (5 μM)/thalidomide (1 μM), 72 hr
# Source text: (§3) FIG. 1. Phenotypic characterization and functional assessment of stepwise differentiated iPSC-cardiac pericytes. A, A schematic showing stage-specific inhibition and activation of morphogens to generate pure epicardial cells (EPI) from human induced pluripotent stem cells (iPSCs). […] MPS, mid-primitive streak; LPM, lateral plate mesoderm; SM, splanchnic mesoderm; ST, septum transversum; PEO, pre-epicardial organ. B, Immunofluorescent images (ZO1 and WT1), flow cytometry (WT1) graphs (n=10 iPSC lines, 5M/5F), and quantitative data showing EPI induction efficiency by stepwise (i) and GiWiGi (ii) protocols. C, Quantitative reverse transcription PCR (RT-qPCR) results showing expression levels of canonical (WT1, TBX18, and TCF21) and mature (ALDH1A2, UPK3B, and ANXA8) markers of EPIs derived by both protocols. D, Single-cell ATAC sequencing (scATAC-seq) of EPIs generated by both GiWiGi (ii) and stepwise (iii) protocols are projected to that of human fetal heart cell clusters (i). […] H, Bright field and immunofluorescent images of iPSC-derived SMCs, cardiac fibroblasts (CFs), and endothelial cells (ECs).
# [4] = system: iPSC-CPs; assay: Gene clustering / gene ontology analysis of treated iPSC-CPs (RNA-seq); assay type: cell-based, human; conditions: sunitinib (5 μM)/thalidomide (1 μM), 72 hr
# [5] = system: CPs; conditions: mice, cited from earlier work
# [6] = system: iPSC-CPs; assay: PrestoBlue viability assay, sunitinib dose-response; assay type: cell-based, human; conditions: 72 hr, sunitinib 0 μM-100 μM
# Source text: as §3
# [7] = system: stepwise EPIs; assay: Differentiation of stepwise EPIs to iPSC-CPs with exogenous PDGF-BB (flow cytometry); assay type: cell-based, human; conditions: exogenous PDGF-BB in pericyte medium
# Source text: as §1
# Next, we differentiated stepwise EPIs in a commercial pericyte medium and observed that it took at least 12 days to generate iPSC-CPs (FIG. 1E) with low efficiency (FIG. 1F).
# Day 11. EPI to Cardiac pericyte, CP. Aspects of the disclosure relate to producing cardiac pericytes through contacting a population of epicardial cells with a cardiac pericyte composition. As described herein, cardiac pericyte induction compositions may vary and generally comprise effective amounts of a PDGF pathway activator in a commercial pericyte medium (ScienCell cat #1201). An exemplary CP induction medium comprises 10 ng/ml PDGF-BB in pericyte medium.
molecule,measurement,setting,value
C[N+](C)(C)CCOC(N)=O [carbachol],"calcium amplitude, iPSC-CPs versus iPSC-SMCs",[1]; after carbachol treatment,much smaller calcium amplitude
same,contraction pattern (intracellular calcium transients),[1]; iPSC-CPs after carbachol treatment,stereotypical contraction pattern
same,contraction pattern (intracellular calcium transients),[2],stereotypical contraction pattern
O=C1CCC(N2C(=O)c3ccccc3C2=O)C(=O)N1 (stereo not drawn) [thalidomide],rescue of CP death,[3],profoundly rescued CP death
same,"genes associated with cell cycle, pericyte function, and DNA damage",[4],"restored genes associated with cell cycle, pericyte function, and DNA damage to a baseline level"
same,rescue from sunitinib-induced CP loss and cardiac dysfunction,[5],can rescue mice from sunitinib-induced CP loss and cardiac dysfunction
CCN(CC)CCNC(=O)c1c(C)[nH]c(/C=C2\C(=O)Nc3ccc(F)cc32)c1C [sunitinib],"sunitinib-induced cell death, sensitivity of iPSC-CPs versus iPSC-CMs",[6],iPSC-CPs were more sensitive than iPSC-CMs
same,"coronary microvascular abnormalities and cardiac dysfunction, primary target cells",[5]; previous study,CPs were the primary targets
B1,generation of iPSC-CPs (PDGFRβ+/CD146+/NG2+/CD13+),[7],successfully generated pure iPSC-CPs
